{"source": "patent US5599789A", "about": "“Method for the treatment of tumours and sarcomas” (Amrad Corporation Limited, priority 1991, dated 1997)", "key": {"[1]": {"system": "LIF receptors on Ewing sarcoma cell line Al5", "assay": "125I-hLIF binding, Scatchard analysis, cloned line Al5", "set-up": "species or system human", "conditions": "Al5 cells, 3 hrs on ice, Scatchard slope, read-out: Equilibrium dissociation constant", "description": "(§1) A cloned Ewing sarcoma cell line Al5 (7×10^6 per point) in 100 μl of RPMI-medium containing 10 mM Hepes buffer pH 7.4 and 10% v/v foetal calf serum were incubated with increasing concentrations of ^125 I-hLIF (E. coli derived) (5000-800,000 cpm: 100,000 cpm/ng) with or without 5 μg/ml of unlabelled hLIF for 3 hrs on ice. The incubation mixture was then layered over 180 μl cold foetal calf serum, centrifuged at top speed in an Eppendoff microfuge for 10 sec and the tip of the tube containing the cell pellet cut with a scalpel blade and removed for counting in a gamma counter."}, "[2]": {"system": "Ewing's sarcoma cells from cell line Al-5", "assay": "Clonogenicity in agar after LIF pretreatment in suspension culture", "format": "cell-based, human", "description": "Ewing's sarcoma cells from cell line Al-5 in suspension cultures were incubated for seven days in the presence or absence of 100 ng/ml LIF prior to inoculation of replicate agar plates with 5×10^3 cells per ml which were then incubated for a further 18 days before colonies were scored. In all cases, the frequency of colonies obtained from LIF-pretreated cells was 35-55% lower compared to control cells."}, "[3]": {"system": "LIF receptors on different Ewing sarcoma cells", "assay": "125I-hLIF binding, second independent Scatchard analysis", "set-up": "species or system human", "conditions": "read-out: Equilibrium dissociation constant", "description": "as §1"}, "[4]": {"system": "Ewing's Sarcoma cell line Al-5", "assay": "Colony formation in semi-solid agar cultures, Al-5 cells", "format": "cell-based, human", "conditions": "Al-5, 1,000 cells, day 18", "description": "Tumour cells obtained from biopsy and bone marrow specimens from patients with Ewing's Sarcoma were used in these studies. Approval for this project has been obtained from the Ethics Committee of the Royal Children's Hospital.\nSingle cell suspensions of tumour cells were obtained by mechanical disruption with an 18G or 21G needle or by pipetting, followed by incubation with dispase II (Boehringer) at a concentration of 1.2 units per ml for 10 minutes at 37° C. Prior to the addition to agar-medium the cells were vortexed gently to prevent clumping.\nClonal cell lines were grown in Iscove's Modified Dulbecco's Medium (IMDM) supplemented with 10% v/v foetal calf serum (FCS; CSL Limited, Melbourne, Australia) and were passaged either weekly or twice weekly. The characteristics of the Ewing Sarcoma cell lines used herein as described below:\nCell lines derived from the above primary cell lines (Al and Cu) are identified by an Arabic numeral (e.g. Al-1, Al-5, Al-8 or Cu-1).\nThe tumour cells were immobilised in 0.3% w/v agar containing Iscove's Modified Dulbecco's Medium (IMDM) and 10% v/v FCS. […] Cultures were scored for the presence of colonies (>40 cells) or clusters (<40 cells). The number of cells plated per culture ranged from 500 to 10,000 per ml. Colonies were counted on an Olympus dissecting microscope.\nIL-1, IL-3, IL-4, IL-6, M-CSF, G-CSF, GM-CSF, Stem Cell Factor (SCF), TNFα, TGFα, TGFβ, EGF, aFGF, bFGF, NGF, IGF I, IGF II, PDGF and IFN-γ.\nThe recombinant human leukaemia inhibitory factor (LIF) was obtained from AMRAD Corporation Limited, Melbourne, Australia."}, "[5]": {"assay": "Toxicity of hLIF in mice, daily subcutaneous injections", "format": "in vivo", "description": "A number of preliminary experiments were performed to determine the appropriate daily dose of hLIF in mice. Mice were injected with high doses of hLIF (100 microgram per mouse). These studies led to death of the mice within 2 weeks of daily subcutaneous injections of LIF. Studies using lower doses (5-20 micrograms per mouse) of hLIF, led to survival of most of the mice for over 20 days. Retro-orbital bleeds were performed on the first 3 days to determine platelet counts. In all mice subcutaneously injected daily with 1 microgram or more of hLIF, the platelet count rose in the first 3 days (26-60% increment on baseline pretreatment levels). In this study an amount of 20 μg of hLIF was chosen to be subcutaneously injected daily into SCID mice bearing Ewing's Sarcoma tumours."}, "[6]": {"system": "Ewing's sarcoma cells (cell line A1-5) xenograft", "assay": "Ewing's tumour growth in SCID mice (subcutaneous xenograft)", "format": "in vivo", "conditions": "for Histology of subcutaneous tumours / Mitotic figures in tumours: hLIF 20 μg/day, 18 days; for Histology of subcutaneous tumours: Haematoxylin and Eosin; for Mitotic figures in tumours: histology", "from_the_text": "Scid mice were obtained from the Animal Resource Centre, Willetton, Western Austarlia. All mice were aged 5-8 weeks, and were the same sex (male). Severe immunodeficiency (scid) is an autosomal recessive mutation that occurred spontaneously in the CB 17 (CB-IgH-1^b (N17F34)) congenic strain (16). In this congenic strain, the inbred BALB/c strain carried the immunoglobulin heavy-chain allele (Igh-I^b) of the C57BL/Ka strain. The SCID locus has been mapped to the centromeric end of chromosome 16 (16). These mice have defective T and B cell immunity, thus allowing for engraftment of many foreign cells. The mice were maintained in a laminar flow unit. In order to reduce the mortality from infection, the mice were kept in previously autoclaved cages, and autoclaved food and acidified water was used.\nRecombinant human LIF (hLIF) derived from E. coli (Lot 122, AMRAD Corporation Limited) was used. Recombinant mouse LIF (Lot 308, AMRAD Corporation Limited) and PBS/1% w/v BSA were used as controls for the in vivo injections.\n5-8×10^6 cloned Ewing's sarcoma cells (cell line A1-5), were injected subcutaneously into SCID mice. Tumours were scored after about 3 weeks in almost all mice at the injection site.\nTo examine the effect of heterologous and homologous LIF relative to the mammal being treated, a double blind controlled study was performed using tumour bearing SCID mice that were injected with hLIF (20 μg per mouse), mouse LIF (100 ng per mouse), or PBS/1% w/v BSA. The effective amount of hLIF was required to be higher than mLIF due to the presence of high circulating levels of a hLIF binding protein in mice (17). Eight mice were injected in each group with the majority of mice in the hLIF group surviving over 2 weeks (range 15-31 days). Tumour size was assessed using calibrated calibers, with measurements in the depth, length and width of the tumours. […] The trend for smaller tumours in hLIF treated mice was evident prior to the wasting syndrome. Although not wishing to limit the present invention to any one hypothesis as to mode of action, this phenomenon may be a manifestation of LIF toxicity in mice. In most cases, this trend was noticeable within 7 days after hLIF injections.\nHistological examination of the subcutaneous tumours was performed on all mice, as was a full necropsy."}, "[7]": {"conditions": "hLIF 20 μg per mouse daily s.c."}}, "note": "“Also recorded” adds a separate entry of the source.", "data": [{"substance": "LIF: recombinant human leukaemia inhibitory factor (E. coli derived) from AMRAD Corporation Limited", "values": [{"measurement": "Kd", "setting": "[1]", "result": 0.09, "unit": "nM"}, {"measurement": "Frequency of colonies from LIF-pretreated cells, lower compared to control cells", "setting": "[2]; Al-5, 100 ng/ml LIF for seven days in suspension, then agar 5×10^3 cells per ml, 18 days, three experiments", "result": "35-55%"}, {"measurement": "Proportion of large colonies in LIF stimulated agar cultures", "setting": "[2]; pretreatment with LIF in suspension cultures for 7-14 days", "result": "further reduced"}, {"measurement": "Kd", "setting": "[3]", "result": 0.13, "unit": "nM"}, {"measurement": "Colonies/Cultures", "setting": "[4]; stimulus 0.01 ng", "result": 47}, {"measurement": "Colonies/Cultures", "setting": "[4]; stimulus 0.1 ng", "result": 27}, {"measurement": "Colonies/Cultures", "setting": "[4]; stimulus 1 ng", "result": 25}, {"measurement": "Colonies/Cultures", "setting": "[4]; stimulus 10 ng", "result": 18}, {"measurement": "Colonies/Cultures", "setting": "[4]; stimulus 100 ng, mean of duplicate colony counts", "result": 2}, {"measurement": "Platelet count rise, increment on baseline pretreatment levels", "setting": "[5]; 1 microgram or more daily subcutaneously, first 3 days", "result": "26-60%"}, {"measurement": "Survival of most of the mice", "setting": "[5]; 5-20 micrograms per mouse", "result": "over 20 days"}, {"measurement": "Time to death of the mice", "setting": "[5]; 100 microgram per mouse, daily subcutaneous injections", "result": "≤ 2", "unit": "weeks"}, {"measurement": "Time until trend for smaller tumours was noticeable", "setting": "[6]; after hLIF injections, 20 μg per mouse, in most cases", "result": "≤ 7", "unit": "days"}, {"measurement": "Survival of the majority of mice", "setting": "[6]; [7]", "result": "over 2 weeks"}, {"measurement": "Tumour size compared to PBS controls", "setting": "[6]; [7]", "result": "significantly reduced in size; also recorded: significantly smaller"}, {"measurement": "Survival range of tumour bearing mice", "setting": "[6]; hLIF 20 μg per mouse daily s.c., eight mice", "result": "15 to 31", "unit": "days"}, {"measurement": "Histology of subcutaneous tumours", "setting": "[6]", "result": "mainly composed of necrotic areas with only a small percentage of the tumour being made up of viable cells"}, {"measurement": "Histology of subcutaneous tumours", "setting": "[6]; listed as human LIF", "result": "regressive, nectrotic tumour cells; also recorded: necrotic, regressive tumour cells"}, {"measurement": "Mitotic figures in tumours", "setting": "[6]", "result": "almost no mitotic figures"}, {"measurement": "Mitotic figures in tumours", "setting": "[6]; listed as human LIF", "result": "lack of mitotic figures"}, {"measurement": "Viable areas of tumours", "setting": "[6]; hLIF treated, microscopic examination", "result": "< 20", "unit": "%"}]}]}
